Publication PMC10948889, “Differential scanning fluorimetry to assess PFAS binding to bovine serum albumin protein” (Scientific Reports, 2024)
Where two headings read alike, the source gives them in different places.

Columns and labels:
[1] = biological target: T1, bovine serum albumin (BSA) (Bos taurus, UniProt P02769); assay: Label-free differential scanning fluorimetry, equilibrium-based binding model near BSA melting temperature; conditions: for Ka (association constant): 61 °C, 10 μM BSA in pH 7.4 PBS, fit to Eqs. (1) and (2), standard error in parentheses
T1 construct: purchased Sigma-Aldrich (St. Louis, MO)
Procedure: (§1) Bovine serum albumin (lyophilized powder, 99% fatty acid free) was obtained from Sigma-Aldrich (St. Louis, MO). A BSA concentration of 10 μM in pH 7.4 phosphate buffered saline (PBS) was used in each experiment. The solution of BSA was kept at 4 °C prior to use.
Experiments were conducted using a Tycho NT.6 differential scanning fluorimeter (NanoTemper, Munich, Germany). […] Solutions were prepared a day in advance of the experiment and stored at 4 °C. Immediately prior to analysis, each sample was loaded into a 1 mm diameter glass capillary and placed in the instrument. […] Fluorescence intensity was measured at 0.1 °C intervals at emission wavelengths of 330 and 350 nm. The ratio of the intensity at these wavelengths, I350/I330, was used to account for blue shifts in the emission peak wavelengths with increasing temperature. The minimum value of the first derivative of the I350/I330 curve with respect to temperature, denoting the midpoint of the melting transition where the fraction of folded to unfolded protein is 1, was taken as the melting temperature Tm. Each experiment was performed in triplicate.
As described by Eftink and Ghiron[44], baseline subtraction of the raw fluorescence intensity data collected at 350 nm was performed at both high and low temperatures. The plots were then normalized by dividing by the maximum intensity value.
The term fU is the fraction of unfolded protein based on the concentration of unfolded protein, [U], divided by the total protein, [P]t, which is the sum of [U], folded protein [F], and folded protein with bound ligand [FL]. [L] is the total free ligand by correcting the total ligand concentration, [L]t, which is a main benefit of this model. KU represents the equilibrium between folded and unfolded protein, and Kd is the ligand dissociation constant from the bound to unbound states.3 Kd=Ka-1=F[L]/[FL]

[2] = design: method as in PMID 29185060; conditions: octanol/water, EPA CompTox Chemicals Dashboard; cited from earlier work
[3] = biological target: T1, bovine serum albumin (BSA); assay: Label-free differential scanning fluorimetry, BSA melting temperature shift (protein stabilization); assay type: binding; conditions: for Stabilizing effect on BSA folded structure (ΔTm): ligand:BSA ratios 0:1 to 4:1, 10 μM BSA, pH 7.4 PBS
Procedure: as §1
Experiments were conducted using a Tycho NT.6 differential scanning fluorimeter (NanoTemper, Munich, Germany). PFAS was added to 2 mL of the stock BSA solution to obtain the PFAS:BSA or FA:BSA ratios of 0:1, 0.5:1, 1:1, 2:1, 3:1, and 4:1. Solutions were prepared a day in advance of the experiment and stored at 4 °C. Immediately prior to analysis, each sample was loaded into a 1 mm diameter glass capillary and placed in the instrument. […] Fluorescence intensity was measured at 0.1 °C intervals at emission wavelengths of 330 and 350 nm. The ratio of the intensity at these wavelengths, I350/I330, was used to account for blue shifts in the emission peak wavelengths with increasing temperature. The minimum value of the first derivative of the I350/I330 curve with respect to temperature, denoting the midpoint of the melting transition where the fraction of folded to unfolded protein is 1, was taken as the melting temperature Tm. Each experiment was performed in triplicate.

[4] = biological target: T1, bovine serum albumin (BSA); assay: Tryptophan fluorescence quenching from DSF, Hill adsorption model; assay type: binding; conditions: 35 °C to 50 °C
Procedure: as §1
Experiments were conducted using a Tycho NT.6 differential scanning fluorimeter (NanoTemper, Munich, Germany). PFAS was added to 2 mL of the stock BSA solution to obtain the PFAS:BSA or FA:BSA ratios of 0:1, 0.5:1, 1:1, 2:1, 3:1, and 4:1. Solutions were prepared a day in advance of the experiment and stored at 4 °C. Immediately prior to analysis, each sample was loaded into a 1 mm diameter glass capillary and placed in the instrument. Thermal scans were conducted from 35 to 95 °C at a scan rate of […] with a 285 nm excitation wavelength. Fluorescence intensity was measured at 0.1 °C intervals at emission wavelengths of 330 and 350 nm. The ratio of the intensity at these wavelengths, I350/I330, was used to account for blue shifts in the emission peak wavelengths with increasing temperature. The minimum value of the first derivative of the I350/I330 curve with respect to temperature, denoting the midpoint of the melting transition where the fraction of folded to unfolded protein is 1, was taken as the melting temperature Tm. Each experiment was performed in triplicate. The same procedure was used for the control ligand warfarin.
The Hill model has been used to correct for the presence of a fluorescent protein–ligand complex and binding cooperativity[21],[34].4 I0-I/I0-Ires=KHillQ^nHill/1+KHillQ^nHill
I0 and I are the fluorescence intensity of BSA in the absence and presence of the ligand and Ires accounts for residual fluorescence at infinite quencher concentration. KHill and nHill are the Hill binding constant and the cooperativity constant, respectively, and [Q] is the concentration of added quencher (PFAS or FA).

[5] = design: method as in PMID 29185060; conditions: octanol/water; experimental average (in parentheses), EPA CompTox Chemicals Dashboard; cited from earlier work
cattle = conditions: varies by sex; cited from earlier work
[6] = ligand:BSA ratio up to 4:1, native protein Tm 62 °C

T1 sequence (P02769 25-607): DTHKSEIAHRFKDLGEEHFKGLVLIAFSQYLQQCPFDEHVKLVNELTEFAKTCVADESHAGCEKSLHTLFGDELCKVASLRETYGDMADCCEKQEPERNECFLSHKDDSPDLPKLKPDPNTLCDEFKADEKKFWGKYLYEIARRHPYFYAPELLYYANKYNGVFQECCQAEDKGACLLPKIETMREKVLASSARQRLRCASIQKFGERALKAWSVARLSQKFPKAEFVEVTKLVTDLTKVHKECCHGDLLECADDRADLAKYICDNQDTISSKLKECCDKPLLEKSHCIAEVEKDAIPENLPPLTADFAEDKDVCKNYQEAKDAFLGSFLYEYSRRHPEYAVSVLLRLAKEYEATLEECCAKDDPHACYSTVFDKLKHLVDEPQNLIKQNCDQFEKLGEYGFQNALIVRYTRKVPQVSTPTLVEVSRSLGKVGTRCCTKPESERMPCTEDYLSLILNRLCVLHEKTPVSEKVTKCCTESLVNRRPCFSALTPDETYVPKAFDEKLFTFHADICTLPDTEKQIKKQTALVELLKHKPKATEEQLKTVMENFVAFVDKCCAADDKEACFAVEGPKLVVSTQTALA

Compound | Kd [1] [µM] | Log Kow (predicted average) [2] | Stabilizing effect on BSA folded structure (ΔTm) [3] | Temperature dependence of KHill (Hill association constant) [4] | Log Kow (experimental average) [5] | Ka (association constant) [1] | Tm of BSA with ligand [3, 6] [°C] | Tm of BSA with ligand [3] [°C] | half-life (cattle) [days]
CCCCCCCCCC(=O)O [DA, Decanoic acid] | 27.6 | 4.03 |  |  |  |  |  |  | 
O=C(O)C(F)(OC(F)(F)C(F)(F)C(F)(F)F)C(F)(F)F (stereo not drawn) [GenX, Perfluoro-2-methyl-3-oxahexanoic acid] | 50.5 | 5.41 | little stabilization | does not change with temperature |  |  |  |  | 
CCCCCCCCC(=O)O [NA, Nonanoic acid] | 0.341 | 3.41 |  |  | 3.42 |  |  |  | 
CCCCCCCC(=O)O [OA, Octanoic acid] |  | 2.99 |  |  | 3.05 |  |  |  | 
O=S(=O)([O-])C(F)(F)C(F)(F)C(F)(F)C(F)(F)F.[Na+] [PFBS, Sodium perfluorobutylsulfonate] |  | 2.20 | little stabilization |  |  | 2.08 (0.61) 10^4 M^−1 |  |  | 
O=C(O)C(F)(F)C(F)(F)C(F)(F)C(F)(F)C(F)(F)C(F)(F)C(F)(F)C(F)(F)C(F)(F)F [PFDA, Perfluorodecanoic acid] |  | 7.32 | no measurable protein stabilization | increasing with temperature | 4.15 | 0.33 (0.26) 10^4 M^−1 |  |  | 
O=S(=O)(O)C(F)(F)C(F)(F)C(F)(F)C(F)(F)C(F)(F)C(F)(F)F [PFHxS, Sodium perfluorohexanesulfonate] | 10.6 | 2.91 | greatest stabilizing effect |  |  |  | 69 to 71 |  | 
O=C(O)C(F)(F)C(F)(F)C(F)(F)C(F)(F)C(F)(F)C(F)(F)C(F)(F)C(F)(F)F [PFNA, Perfluorononanoic acid] |  | 6.51 | greatest stabilizing effect | increasing with temperature | 3.54 |  |  | 69 to 71 | 
O=C(O)C(F)(F)C(F)(F)C(F)(F)C(F)(F)C(F)(F)C(F)(F)C(F)(F)F [PFOA, Perfluorooctanoic acid] | 41 | 5.68 |  | increasing with temperature | 3.10 |  | 69 to 71 |  | 
O=S(=O)(O)C(F)(F)C(F)(F)C(F)(F)C(F)(F)C(F)(F)C(F)(F)C(F)(F)C(F)(F)F [PFOS, Sodium perfluorooctanesulfonate] |  | 4.94 | minimal shift Tm |  |  |  |  |  | 39 to 120
